Test [1] deals with T1, human GcgR (Homo sapiens, UniProt P47871).
T1 construct: expressed in transfected cells; crude membranes
Kind of test: [125I]-Glucagon binding, SPA with WGA beads, 0.1% bacitracin. Particulars: geometric mean, read-out: hGcgR Ki. The method, boiled down: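 SPA competition binding with WGA beads on crude membranes from HEK293 cells stably expressing hGcgR. Buffer: 25 mM HEPES pH 7.4, 2.5 mM CaCl2, 1 mM MgCl2, 0.1% bacitracin, 0.003% Tween-20; 10-point 3-fold dilutions, NSB with 1 μM Gcg.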

The target in test [2] is T2, human GIPR (Homo sapiens, UniProt P48546).
T2 construct: expressed in transfected cells; crude membranes
T2 sequence (P48546 22-466): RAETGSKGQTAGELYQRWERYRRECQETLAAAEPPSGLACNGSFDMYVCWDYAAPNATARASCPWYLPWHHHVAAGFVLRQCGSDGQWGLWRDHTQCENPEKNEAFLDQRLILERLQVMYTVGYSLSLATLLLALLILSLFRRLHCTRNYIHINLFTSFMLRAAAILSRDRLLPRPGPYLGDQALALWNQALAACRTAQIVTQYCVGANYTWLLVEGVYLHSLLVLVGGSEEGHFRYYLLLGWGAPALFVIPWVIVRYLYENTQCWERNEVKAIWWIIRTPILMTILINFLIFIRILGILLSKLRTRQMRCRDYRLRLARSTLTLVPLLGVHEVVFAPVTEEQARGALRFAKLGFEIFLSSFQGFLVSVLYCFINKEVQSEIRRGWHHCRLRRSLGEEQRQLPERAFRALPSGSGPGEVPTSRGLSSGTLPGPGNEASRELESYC
Kind of test: [125I]-GIP binding, SPA with WGA beads, 0.1% bacitracin. The settings on record: geometric mean, read-out: hGIPR Ki. The method, boiled down: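 Ki values are geometric means (SEM, n independent days), derived from four-parameter nonlinear regression of IC50. Membranes came from hGIPR-expressing CHO cells.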

The structures appear in SMILES notation. *1 amine or outer side, *2 acyl side, *3 side chain or, on linkers, in order; H or OH if unused. Where a SMILES comes first, the peptide text is derived from it. Side-chain parts run from the residue outwards. [ ]: non-standard residue; d: D form. The star is where a group is joined. C20 diacid = O=C(O)CCCCCCCCCCCCCCCCCCC(=O)*; C18 diacid = O=C(O)CCCCCCCCCCCCCCCCC(=O)*; αMePhe(2-F) = C[C@](N)(Cc1ccccc1F)C(=O)O; γGlu = O=C(O)[C@H](CCC(=O)[*:2])N[*:1]; αMeY = C[C@](N)(Cc1ccc(O)cc1)C(=O)O; αMeL = CC(C)C[C@](C)(N)C(=O)O; AEEA = NCCOCCOCC(=O)O; Aib = CC(C)(N)C(=O)O

By Ki is commonly meant the dissociation constant of the complex between target and ligand, obtained from inhibition or displacement.

T1 sequence (P47871 26-477): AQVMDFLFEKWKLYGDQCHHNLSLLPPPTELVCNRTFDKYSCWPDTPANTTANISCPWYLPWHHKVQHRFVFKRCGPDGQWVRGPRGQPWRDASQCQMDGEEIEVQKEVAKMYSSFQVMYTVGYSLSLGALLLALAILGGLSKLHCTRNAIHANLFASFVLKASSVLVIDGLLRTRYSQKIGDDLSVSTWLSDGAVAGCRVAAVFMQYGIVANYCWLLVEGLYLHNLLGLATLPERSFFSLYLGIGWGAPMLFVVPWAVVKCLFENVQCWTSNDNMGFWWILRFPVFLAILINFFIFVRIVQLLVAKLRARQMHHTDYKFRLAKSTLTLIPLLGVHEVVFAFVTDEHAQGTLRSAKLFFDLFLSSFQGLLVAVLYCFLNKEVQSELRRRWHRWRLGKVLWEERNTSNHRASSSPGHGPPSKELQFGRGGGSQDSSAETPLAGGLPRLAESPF

Consider `CC[C@H](C)[C@H](NC(=O)[C@H](Cc1ccccc1)NC(=O)[C@@H](NC(=O)CNC(=O)[C@H](CCC(=O)O)NC(=O)C(C)(C)NC(=O)[C@@H](N)Cc1ccc(O)cc1)[C@@H](C)O)C(=O)N[C@@H](CO)C(=O)N[C@@H](CC(=O)O)C(=O)N[C@@H](Cc1ccc(O)cc1)C(=O)N[C@@H](CO)C(=O)N[C@H](C(=O)N[C@@](C)(CC(C)C)C(=O)N[C@@H](CC(C)C)C(=O)N[C@@H](CC(=O)O)C(=O)N[C@@H](CCCCN)C(=O)N[C@@H](CCCCNC(=O)COCCOCCNC(=O)COCCOCCNC(=O)CC[C@H](NC(=O)CCCCCCCCCCCCCCCCCCC(=O)O)C(=O)O)C(=O)N[C@@H](Cc1c[nH]cn1)C(=O)N[C@@H](CCC(N)=O)C(=O)NC(C)(C)C(=O)N[C@@H](CC(=O)O)C(=O)N[C@@H](Cc1ccccc1)C(=O)N[C@H](C(=O)N[C@@H](CCC(=O)O)C(=O)N[C@@](C)(Cc1ccc(O)cc1)C(=O)N[C@@H](CC(C)C)C(=O)N[C@@H](CC(C)C)C(=O)N[C@@H](CCC(=O)O)C(=O)N[C@@H](C)C(=O)NCC(=O)N1CCC[C@H]1C(=O)N[C@@H](CO)C(=O)N[C@@H](CO)C(=O)NCC(=O)N[C@@H](C)C(=O)N1CCC[C@H]1C(=O)N1CCC[C@H]1C(=O)N1CCC[C@H]1C(=O)N[C@@H](CO)C(N)=O)C(C)C)[C@@H](C)CC` [Example 90] (H-Y[Aib]EGTFISDYSI[αMeL]LDKK([AEEA-AEEA-γGlu-C20 diacid])HQ[Aib]DFVE[αMeY]LLEAGPSSGAPPPS-NH2), for which the Ki in test [1] came out at 112 nM; in test [2], 0.129 nM.
For `CC[C@H](C)[C@H](NC(=O)[C@H](Cc1ccccc1)NC(=O)[C@@H](NC(=O)CNC(=O)[C@H](CCC(=O)O)NC(=O)C(C)(C)NC(=O)[C@@H](N)Cc1ccc(O)cc1)[C@@H](C)O)C(=O)N[C@@H](CO)C(=O)N[C@@H](CC(=O)O)C(=O)N[C@@H](Cc1ccc(O)cc1)C(=O)N[C@@H](CO)C(=O)N[C@H](C(=O)N[C@@](C)(CC(C)C)C(=O)N[C@@H](CC(C)C)C(=O)N[C@@H](CC(=O)O)C(=O)N[C@@H](CCCCN)C(=O)N[C@@H](CCCCNC(=O)COCCOCCNC(=O)COCCOCCNC(=O)CC[C@H](NC(=O)CCCCCCCCCCCCCCCCCCC(=O)O)C(=O)O)C(=O)N[C@@H](Cc1c[nH]cn1)C(=O)N[C@@H](CCC(N)=O)C(=O)NC(C)(C)C(=O)N[C@@H](CC(=O)O)C(=O)N[C@@H](Cc1ccccc1)C(=O)N[C@H](C(=O)N[C@@H](CCC(=O)O)C(=O)N[C@@](C)(Cc1ccc(O)cc1)C(=O)N[C@@H](CC(C)C)C(=O)N[C@@H](CC(C)C)C(=O)N[C@@H](CCC(=O)O)C(=O)NCC(=O)NCC(=O)N1CCC[C@H]1C(=O)N[C@@H](CO)C(=O)N[C@@H](CO)C(=O)NCC(=O)N[C@@H](C)C(=O)N1CCC[C@H]1C(=O)N1CCC[C@H]1C(=O)N1CCC[C@H]1C(=O)N[C@@H](CO)C(N)=O)C(C)C)[C@@H](C)CC` [Example 91] (H-Y[Aib]EGTFISDYSI[αMeL]LDKK([AEEA-AEEA-γGlu-C20 diacid])HQ[Aib]DFVE[αMeY]LLEGGPSSGAPPPS-NH2) the same measures were 54.4 nM and 0.122 nM.
As to `CC[C@H](C)[C@H](NC(=O)[C@H](CCCCN)NC(=O)[C@H](CC(=O)O)NC(=O)[C@H](CC(C)C)NC(=O)[C@](C)(CC(C)C)NC(=O)[C@@H](NC(=O)[C@H](CO)NC(=O)[C@H](Cc1ccc(O)cc1)NC(=O)[C@H](CC(=O)O)NC(=O)[C@H](CO)NC(=O)[C@@H](NC(=O)[C@H](Cc1ccccc1)NC(=O)[C@@H](NC(=O)CNC(=O)[C@H](CCC(=O)O)NC(=O)C(C)(C)NC(=O)[C@@H](N)Cc1ccc(O)cc1)[C@@H](C)O)[C@@H](C)CC)[C@@H](C)CC)C(=O)N[C@@H](Cc1c[nH]cn1)C(=O)N[C@@H](CCC(N)=O)C(=O)NC(C)(C)C(=O)N[C@@H](CC(=O)O)C(=O)N[C@@H](Cc1ccccc1)C(=O)N[C@H](C(=O)N[C@@H](CCC(=O)O)C(=O)N[C@@H](Cc1ccc(O)cc1)C(=O)N[C@@H](CCCCNC(=O)COCCOCCNC(=O)COCCOCCNC(=O)CC[C@H](NC(=O)CCCCCCCCCCCCCCCCCCC(=O)O)C(=O)O)C(=O)N[C@@H](CC(C)C)C(=O)N[C@@H](CCC(=O)O)C(=O)N[C@@H](CCC(N)=O)C(=O)NCC(=O)N1CCC[C@H]1C(=O)N[C@@H](CO)C(=O)N[C@@H](CO)C(=O)NCC(=O)N[C@@H](C)C(=O)N1CCC[C@H]1C(=O)N1CCC[C@H]1C(=O)N1CCC[C@H]1C(=O)N[C@@H](CO)C(N)=O)C(C)C` [Example 92] (H-Y[Aib]EGTFISDYSI[αMeL]LDKIHQ[Aib]DFVEYK([AEEA-AEEA-γGlu-C20 diacid])LEQGPSSGAPPPS-NH2), the inhibition constant (Ki) is above 958 nM in test [1] and 0.0331 nM in test [2].
For `CC[C@H](C)[C@H](NC(=O)[C@H](CCCCN)NC(=O)[C@H](CC(=O)O)NC(=O)[C@H](CC(C)C)NC(=O)[C@H](CC(C)C)NC(=O)[C@@H](NC(=O)[C@H](CO)NC(=O)[C@H](Cc1ccc(O)cc1)NC(=O)[C@H](CC(=O)O)NC(=O)[C@H](CO)NC(=O)[C@@H](NC(=O)[C@H](Cc1ccccc1)NC(=O)[C@@H](NC(=O)CNC(=O)[C@H](CCC(=O)O)NC(=O)[C@@H](C)NC(=O)[C@@H](N)Cc1ccc(O)cc1)[C@@H](C)O)[C@@H](C)CC)[C@@H](C)CC)C(=O)N[C@@H](C)C(=O)N[C@@H](CCC(N)=O)C(=O)NC(C)(C)C(=O)N[C@@H](CC(=O)O)C(=O)N[C@@H](Cc1ccccc1)C(=O)N[C@H](C(=O)N[C@@H](CC(N)=O)C(=O)N[C@@H](Cc1c[nH]c2ccccc12)C(=O)N[C@@H](CCCCNC(=O)COCCOCCNC(=O)COCCOCCNC(=O)CC[C@H](NC(=O)CCCCCCCCCCCCCCCCC(=O)O)C(=O)O)C(=O)N[C@@H](CC(C)C)C(=O)N[C@@H](C)C(=O)N[C@@H](CCC(N)=O)C(=O)NCC(=O)N1CCC[C@H]1C(=O)N[C@@H](CO)C(=O)N[C@@H](CO)C(=O)NCC(=O)N[C@@H](C)C(=O)N1CCC[C@H]1C(=O)N1CCC[C@H]1C(=O)N1CCC[C@H]1C(=O)N[C@@H](CO)C(N)=O)C(C)C` [Example 93] (H-Y[dA]EGTFISDYSILLDKIAQ[Aib]DFVNWK([AEEA-AEEA-γGlu-C18 diacid])LAQGPSSGAPPPS-NH2) the same measures were above 959 nM and 0.043 nM.
For `CC[C@H](C)[C@H](NC(=O)[C@H](CO)NC(=O)[C@H](Cc1ccc(O)cc1)NC(=O)[C@H](CC(=O)O)NC(=O)[C@H](CO)NC(=O)[C@@H](NC(=O)[C@](C)(Cc1ccccc1F)NC(=O)[C@@H](NC(=O)CNC(=O)[C@H](CCC(=O)O)NC(=O)C(C)(C)NC(=O)[C@@H](N)Cc1ccc(O)cc1)[C@@H](C)O)[C@@H](C)CC)C(=O)N[C@@H](C)C(=O)N[C@@H](CC(C)C)C(=O)N[C@@H](CC(=O)O)C(=O)N[C@@H](CCCCN)C(=O)N[C@H](C(=O)N[C@@H](Cc1c[nH]cn1)C(=O)N[C@@H](CCC(N)=O)C(=O)NC(C)(C)C(=O)N[C@@H](CCC(=O)O)C(=O)N[C@@H](Cc1ccccc1)C(=O)N[C@H](C(=O)N[C@@H](CC(N)=O)C(=O)N[C@@H](Cc1ccc(O)cc1)C(=O)N[C@@H](CCCCNC(=O)COCCOCCNC(=O)COCCOCCNC(=O)CC[C@H](NC(=O)CCCCCCCCCCCCCCCCC(=O)O)C(=O)O)C(=O)N[C@@H](CC(C)C)C(=O)N[C@@H](C)C(=O)NCC(=O)NCC(=O)N1CCC[C@H]1C(=O)N[C@@H](CO)C(=O)N[C@@H](CO)C(=O)NCC(=O)N[C@@H](C)C(=O)N1CCC[C@H]1C(=O)N1CCC[C@H]1C(=O)N1CCC[C@H]1C(=O)N[C@@H](CO)C(N)=O)C(C)C)[C@@H](C)CC` [Example 94] (H-Y[Aib]EGT[αMePhe(2-F)]ISDYSIALDKIHQ[Aib]EFVNYK([AEEA-AEEA-γGlu-C18 diacid])LAGGPSSGAPPPS-NH2) the same measures were 114 nM and 0.031 nM.
The corresponding values for `CC[C@H](C)[C@H](NC(=O)[C@H](CO)NC(=O)[C@H](Cc1ccc(O)cc1)NC(=O)[C@H](CC(=O)O)NC(=O)[C@H](CO)NC(=O)[C@@H](NC(=O)[C@](C)(Cc1ccccc1F)NC(=O)[C@@H](NC(=O)CNC(=O)[C@H](CCC(=O)O)NC(=O)C(C)(C)NC(=O)[C@@H](N)Cc1ccc(O)cc1)[C@@H](C)O)[C@@H](C)CC)C(=O)N[C@@H](C)C(=O)N[C@@H](CC(C)C)C(=O)N[C@@H](CC(=O)O)C(=O)N[C@@H](CCCCN)C(=O)N[C@H](C(=O)N[C@@H](Cc1c[nH]cn1)C(=O)N[C@@H](CCC(N)=O)C(=O)NC(C)(C)C(=O)N[C@@H](CCC(=O)O)C(=O)N[C@@H](Cc1ccccc1)C(=O)N[C@H](C(=O)N[C@@H](CC(N)=O)C(=O)N[C@@H](Cc1ccc(O)cc1)C(=O)N[C@@H](CCCCNC(=O)COCCOCCNC(=O)COCCOCCNC(=O)CC[C@H](NC(=O)CCCCCCCCCCCCCCCCCCC(=O)O)C(=O)O)C(=O)N[C@@H](CC(C)C)C(=O)N[C@@H](CCC(=O)O)C(=O)NCC(=O)NCC(=O)N1CCC[C@H]1C(=O)N[C@@H](CO)C(=O)N[C@@H](CO)C(=O)NCC(=O)N[C@@H](C)C(=O)N1CCC[C@H]1C(=O)N1CCC[C@H]1C(=O)N1CCC[C@H]1C(=O)N[C@@H](CO)C(N)=O)C(C)C)[C@@H](C)CC` [Example 95] (H-Y[Aib]EGT[αMePhe(2-F)]ISDYSIALDKIHQ[Aib]EFVNYK([AEEA-AEEA-γGlu-C20 diacid])LEGGPSSGAPPPS-NH2) are 85 nM and 0.0255 nM.

These data come from patent US12723063B2, “GIPR-agonist compounds” (Eli Lilly and Company, priority 2019, dated 2026).
